Source: US20230149374A1, “METHODS AND COMPOSITIONS FOR TREATING ATHEROSCLEROSIS” (Sanford Burnham Prebys Medical Discovery Institute, priority 2021, published 2023)
“Also recorded” adds a separate entry of the source.

Tests used:
[1] = test system: ApoE-deficient mice; assay: Quantitative PCR of transcript levels in the liver; format: in vivo, mouse; conditions: 30 mg/kg/day, 25 weeks, vs control
[2] = test system: ApoE-deficient mice; assay: Bone architecture by micro-CT of the femur; format: in vivo, mouse; conditions: 30 mg/kg/day, treatment up to 21 weeks (31 weeks of age)
Excerpt: (§1) Four cohorts of mice were used in these studies (FIGS. 8A and 9A). Cohorts 1 and 2 were devoted to the in vivo and ex vivo characterization of TNAP-associated plaque calcification. 6-week-old ApoE-deficient male mice were received at the animal facility and placed in conventional cages with 5 mice per cage. Mice were maintained on a 12-hrs light-dark cycle (7:00 am-7:00 pm) and were supplied with food and water ad libitum. From 10 weeks of age, they were fed ad libitum with a high fat diet (HFD, D12108C, Research Diets, New Brunswick, USA) containing 40% fat (kcal) and 1.25% cholesterol (weight). In cohort 1, 8 mice were sacrificed every 2 weeks between weeks 17 to 31, for histological and molecular analyses. Total body weight was measured weekly after starting the HFD. The sacrifice was done after anesthesia with isoflurane and intracardiac blood puncture by CO2 inhalation. Tissues were harvested as described below. The abdominal aorta was used for quantitative polymerase chain reaction (PCR) analyses. Mice from cohort 2 were used to analyze aorta calcification with ^18F—NaF μPET and μCT and to compare the in vivo data with the ex vivo results obtained in cohort 1. Animals were transferred from the animal facility to the Cermep imaging platform. […] Plaque calcification was analyzed at 25 weeks, and possible side effects of TNAP inhibition were explored in mice aged 31 weeks. […]

[3] = test system: ApoE-deficient mice; assay: In vivo aortic calcification imaging, 18F-NaF μPET / μCT; set-up: species or system mouse; conditions: ApoE-deficient mice on HFD, 30 mg/kg/day in food from 10 to 25 weeks of age; control 6 out of 11
Excerpt: as §1, with “analyses.” for “analyses. Mice from cohort 2 were used to analyze aorta calcification with ^18F—NaF μPET and μCT and to compare the in vivo data with the ex vivo results obtained in cohort 1. Animals were transferred from the animal facility to the Cermep imaging platform.”
Mice were placed into a chamber connected to an isoflurane anesthesia unit. […] Images were analyzed using Inveon Research workplace (Siemens). The presence of atherosclerotic plaques was evaluated both in CT and PET images. […]

[4] = test system: ApoE-deficient mice; assay: Liver content of cholesterol, triglycerides, bile acids, hydroxyproline; format: in vivo, mouse; conditions: 30 mg/kg/day, 25 weeks, vs control
Excerpt: Four cohorts of mice were used in these studies (FIGS. 8A and 9A). Cohorts 1 and 2 were devoted to the in vivo and ex vivo characterization of TNAP-associated plaque calcification. 6-week-old ApoE-deficient male mice were received at the animal facility and placed in conventional cages with 5 mice per cage. Mice were maintained on a 12-hrs light-dark cycle (7:00 am-7:00 pm) and were supplied with food and water ad libitum. From 10 weeks of age, they were fed ad libitum with a high fat diet (HFD, D12108C, Research Diets, New Brunswick, USA) containing 40% fat (kcal) and 1.25% cholesterol (weight). In cohort 1, 8 mice were sacrificed every 2 weeks between weeks 17 to 31, for histological and molecular analyses. Total body weight was measured weekly after starting the HFD. The sacrifice was done after anesthesia with isoflurane and intracardiac blood puncture by CO2 inhalation. Tissues were harvested as described below. The abdominal aorta was used for quantitative polymerase chain reaction (PCR) analyses. Mice from cohort 2 were used to analyze aorta calcification with ^18F—NaF μPET and μCT and to compare the in vivo data with the ex vivo results obtained in cohort 1. Animals were transferred from the animal facility to the Cermep imaging platform. Cohorts 3 and 4 were used to determine in vivo and ex vivo the impact of TNAP inhibition on the vasculature, liver, bones, and kidneys. According to the results obtained in cohorts 1 and 2, TNAP inhibitor SBI-425 (30 mg/kg/day, formulated as a food admixture in the HFD) was administered in a preventive manner from 10 weeks of age. Treatment was stopped at 25 weeks or 31 weeks of age. Plaque calcification was analyzed at 25 weeks, and possible side effects of TNAP inhibition were explored in mice aged 31 weeks. Mice in cohort 3 (2 groups of 13 mice) were used for ex vivo analysis, and mice in cohort 4 (2 groups of 12 mice) for in vivo imaging and ex vivo analyses.
For the determination of cholesterol, triglycerides, and total bile acids in liver, 40-mg pieces of liver were homogenized in 1 mL of 5% NP40 solution in a dounce homogenizer. The hydrophobic components were extracted twice at 80° C. for 5 minutes. The samples were centrifuged, and the supernatants were assayed for cholesterol, triglycerides and bile acids with the same kits used for blood. In order to quantify hydroxyproline, 100 mg pieces of liver were homogenized in 1 mL of pure water in a dounce homogenizer and a perchlorate-free kit from Sigma was used (MAK357).

**Q.** How did the “Abcg8 transcript level, liver” value [1] turn out when `COc1ccc(Cl)cc1S(=O)(=O)Nc1cncc(C(N)=O)c1` [SBI-425] was run?
**A.** did not change

**Q.** What about the “Cyp7a1 transcript level, liver” value [1] of the same molecule?
**A.** did not change

**Q.** And the “Cyp7b1 transcript level, liver” value [1]?
**A.** did not change

**Q.** And the “Fas transcript level (fatty acid synthesis), liver” value [1]?
**A.** nor were the levels of transcripts associated with fatty acid synthesis (Srebp1c, Fas) (FIGS. 6B-6G) changed

**Q.** And the “Hmgcr transcript level, liver” value [1]?
**A.** did not change

**Q.** And the “Hp transcript level (liver inflammation)” value [1]?
**A.** unchanged

**Q.** What about the “Il1b transcript level (liver inflammation)” value [1] of the same molecule?
**A.** unchanged

**Q.** And the “Ly6g transcript level (liver inflammation)” value [1]?
**A.** unchanged

**Q.** And the “Scarb1 transcript level, liver” value [1]?
**A.** did not change

**Q.** And the “Srebp1c transcript level (fatty acid synthesis), liver” value [1]?
**A.** nor were the levels of transcripts associated with fatty acid synthesis (Srebp1c, Fas) (FIGS. 6B-6G) changed

**Q.** What about the “Tnfa transcript level (liver inflammation)” value [1] of the same molecule?
**A.** unchanged

**Q.** And the bone architecture [2]?
**A.** no effect; also recorded: did not significantly change

**Q.** And the “mice having calcifications, in vivo 18F-NaF μPET and μCT” value [3]?
**A.** 0 out of 12

**Q.** What about the “liver TG content” value [4] of the same molecule?
**A.** not increased

**Q.** What about the “liver bile acids levels” value [4] of the same molecule?
**A.** did not change

**Q.** And the liver cholesterol levels [4]?
**A.** did not change

**Q.** What about the “liver hydroxyproline levels (liver fibrosis)” value [4] of the same molecule?
**A.** unchanged
